# Test results from publication PMC6102074 (European journal of medicinal chemistry, 2018).
# Experiments:
# [1] = after 60 minutes
# [2] = Pion's μSOL assay for kinetic solubility; assay type: physicochemical
# [3] = kinetic solubility analysis in PBS solution; assay type: physicochemical
# VEGF = conditions: human monocyte leukemia cells (THP1); previously reported, ref [9], [17]; cited from earlier work
# rat microsome stability = conditions: microsomes
compound,measurement,setting,value
3-(Cyclohexanecarboxamido)-N-(3-(trifluoromethyl)phenyl)-benzamide [Compound 3],parent remaining in mouse liver microsomes,[1],70%
O=C(Nc1ccccc1C(=O)Nc1ccccc1C(=O)NCc1ccco1)c1ccco1 [Compound 1],solubility kinetic,physchem,1.6 µg/mL
"CCOc1ccccc1C(=O)Nc1ncccc1C(=O)Nc1cccc(S(=O)(=O)C(F)(F)F)c1 [Compound 49, 2-(2-Ethoxybenzamido)-N-(3-((trifluoromethyl)sulfonyl)phenyl)nicotinamide]",solubility,[2],< 1 µM
"CCOc1ccccc1C(=O)Nc1cnccc1C(=O)Nc1cccc(S(=O)(=O)C(F)(F)F)c1 [Compound 50, 3-(2-Ethoxybenzamido)-N-(3-((trifluoromethyl)sulfonyl)phenyl)isonicotinamide]",solubility,[2],< 1 µM
"CCOc1ccccc1C(=O)Nc1ccccc1C(=O)Nc1cccc(S(=O)(=O)C(F)(F)F)c1 [Compound 63, 2-Ethoxy-N-(2-((3-((trifluoromethyl)sulfonyl)phenyl)carbamoyl)phenyl)benzamide]",solubility,[3],< 1.1 µM
"CC(C)Oc1ccccc1C(=O)Nc1ccccc1C(=O)Nc1cccc(S(=O)(=O)C(F)(F)F)c1 [Compound 65, 2-Isopropoxy-N-(2-(3-(trifluoromethylsulfonyl)phenylcarbamoyl)phenyl)benzamide]",activation of VEGF transcription,VEGF,activate the transcription
same,half-life,rat microsome stability,28.2 min
